Source: PubChem BioAssay (NCI)
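1) Cells in 96-well plates. 2) Compound, 48 h, 5 concentrations. 3) Linear interpolation between surrounding doses. 4) Unreached endpoint = highest concentration. GI50 = concentration required for 50% inhibition of growth. TGI is the concentration that stops growth completely.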

What was measured:
Assay in all cases: growth of human tumour cells (NCI), 48 h
[1] = tested on: MOLT-4 leukemia
[2] = tested on: OVCAR-3 ovarian
[3] = tested on: CCRF-CEM leukemia
[4] = tested on: SF-295 CNS
[5] = tested on: U251 CNS
[6] = tested on: SF-539 CNS
[7] = tested on: SNB-19 CNS
[8] = tested on: UACC-257 melanoma
[9] = tested on: IGROV1 ovarian
[10] = tested on: OVCAR-5 ovarian
[11] = tested on: LOX IMVI melanoma
[12] = tested on: NCI-H460 lung
[13] = tested on: HOP-92 NSCLC
[14] = tested on: A498 renal
[15] = tested on: SW-620 colon
[16] = tested on: SK-MEL-5 melanoma
[17] = tested on: RPMI-8226 leukemia
[18] = tested on: HT29 colon
[19] = tested on: HS 578T breast
[20] = tested on: UO-31 renal
[21] = tested on: OVCAR-4 ovarian
[22] = tested on: HCT-15 colon
[23] = tested on: PC-3 prostate
[24] = tested on: A549 NSCLC
[25] = tested on: HCC-2998 colon
[26] = tested on: ACHN renal
[27] = tested on: MCF7 breast
[28] = tested on: NCI-H226 lung
[29] = tested on: DU-145 prostate
[30] = tested on: UACC-62 melanoma
[31] = tested on: M14 melanoma
[32] = tested on: COLO 205 colon
[33] = tested on: RXF 393 renal
[34] = tested on: BT-549 breast
[35] = tested on: OVCAR-8 ovarian
[36] = tested on: 786-0 renal
[37] = tested on: K-562 leukemia
[38] = tested on: SK-MEL-2 melanoma
[39] = tested on: SF-268 CNS
[40] = tested on: CAKI-1 renal
[41] = tested on: HCT-116 colon
[42] = tested on: KM12 colon
[43] = tested on: NCI-H522 lung
[44] = tested on: HOP-62 NSCLC
[45] = tested on: SN12C renal
[46] = tested on: SR leukemia
[47] = tested on: SK-OV-3 ovarian
[48] = tested on: SNB-75 CNS
[49] = tested on: NCI-H23 lung
[50] = tested on: MDA-MB-231 breast
[51] = tested on: MDA-MB-435
[52] = tested on: NCI/ADR-RES ovarian
[53] = tested on: SK-MEL-28 melanoma

## COc1ccc(-c2[nH]ncc2-c2cc(OC)c(OC)c(OC)c2)cc1
[1]
  GI50: 30.8 nM
  TGI: 4660 nM
[2]
  GI50: < 10 nM
[3]
  GI50: < 16.3 nM
  TGI: 28800 nM
[4]
  GI50: < 10 nM
  TGI: < 10 nM
[5]
  GI50: < 10 nM
  TGI: 6110 nM
[6]
  GI50: < 10 nM
  TGI: < 12.8 nM
[7]
  GI50: < 10 nM
  TGI: > 100000 nM
[8]
  TGI: > 50300 nM
[9]
  GI50: < 10 nM
  TGI: 7730 nM
[10]
  GI50: < 18 nM
  TGI: > 47700 nM
[11]
  GI50: < 10 nM
  TGI: 44400 nM
[12]
  GI50: < 10 nM
  TGI: 1300 nM
[13]
  GI50: < 10 nM
  TGI: 901 nM
[14]
  GI50: < 10 nM
  TGI: < 12.7 nM
[15]
  GI50: < 10 nM
  TGI: > 41500 nM
[16]
  GI50: < 10 nM
  TGI: 55.1 nM
[17]
  GI50: 13.2 nM
  TGI: 16000 nM
[18]
  GI50: < 10 nM
  TGI: 32.6 nM
[19]
  GI50: < 10 nM
  TGI: 7240 nM
[20]
  GI50: < 10 nM
  TGI: 11200 nM
[21]
  GI50: < 39.7 nM
  TGI: 29600 nM
[22]
  GI50: < 10 nM
  TGI: > 80600 nM
[23]
  GI50: < 10 nM
  TGI: 32500 nM
[24]
  GI50: < 10 nM
  TGI: > 38000 nM
[25]
  GI50: 14.7 nM
  TGI: 19200 nM
[26]
  GI50: < 10 nM
  TGI: > 42900 nM
[27]
  GI50: < 10 nM
  TGI: 22500 nM
[28]
  GI50: < 14.8 nM
  TGI: 34800 nM
[29]
  GI50: < 10 nM
  TGI: 1640 nM
[30]
  GI50: < 10 nM
  TGI: 22500 nM
[31]
  GI50: < 10 nM
  TGI: 852 nM
[32]
  GI50: < 10 nM
  TGI: < 10 nM
[33]
  GI50: < 10 nM
  TGI: 17800 nM
[34]
  GI50: 14.3 nM
  TGI: 4450 nM
[35]
  GI50: < 12.4 nM
  TGI: > 33200 nM
[36]
  GI50: < 10 nM
  TGI: 13900 nM
[37]
  GI50: < 10 nM
  TGI: > 34400 nM
[38]
  GI50: < 10 nM
  TGI: 517 nM
[39]
  GI50: < 12.7 nM
  TGI: > 38100 nM
[40]
  GI50: < 10 nM
  TGI: 25000 nM
[41]
  GI50: < 10 nM
  TGI: 12200 nM
[42]
  GI50: < 10 nM
  TGI: 13100 nM
[43]
  GI50: < 10 nM
  TGI: < 10 nM
[44]
  GI50: < 10 nM
  TGI: > 100000 nM
[45]
  TGI: > 81800 nM
[46]
  GI50: < 10 nM
  TGI: 19500 nM
[47]
  GI50: < 10 nM
  TGI: 20500 nM
[48]
  GI50: < 10 nM
  TGI: 21000 nM
[49]
  GI50: 10.3 nM
  TGI: 26700 nM
[50]
  GI50: 27.1 nM
[51]
  GI50: < 10 nM
  TGI: < 10 nM
[52]
  GI50: < 10 nM
  TGI: 1930 nM
[53]
  GI50: < 18.5 nM
  TGI: 33600 nM
